Laboratory results reported in ChEMBL document CHEMBL3351604, “Rhytidenones A-F, Spirobisnaphthalenes from Rhytidhysteron sp. AS21B, an Endophytic Fungus” (J Nat Prod, 2014).
Active and inactive are the calls of the source. No cut-off for these calls is given here.

Key:
[1] = Antiinflammatory activity in mouse J774A1 cells assessed as inhibition of LPS-stimulated NO production pretreated for 2 hrs followed by LPS addition measured after 18 hrs post LPS challenge by spectrophotometry; assay type: functional, cell-based; conditions: J774.A1
J774.A1 = test: Antiinflammatory activity in mouse J774A1 cells assessed as inhibition of LPS-stimulated NO production pretreated at 10 uM for 2 hrs followed by LPS addition measured after 18 hrs post LPS challenge by spectrophotometry; assay type: functional, cell-based
[2] = Cytotoxicity against mouse J774A1 cells by MTT assay; assay type: cell-based; conditions: j774.a1

| IC50 [1] | SMILES | Activity [2] | other results |
| --- | --- | --- | --- |
| 3.6 µM | O=C1C[C@@H](O)[C@@H](O)[C@@H]2C1=CCCC21Oc2cccc3cccc(c23)O1 |  |  |
|  | OC1C=CC(O)C2C1C(O)CCC21Oc2cccc3cccc(c23)O1 (stereo not given) |  | inhibition (J774.A1): inactive |
| 0.31 µM | O=C1C[C@H](O)[C@@H](O)[C@@H]2C1=CCCC21Oc2cccc3cccc(c23)O1 |  |  |
|  | CO[C@@H]1CC(=O)C2=CCCC3(Oc4cccc5cccc(c45)O3)[C@@H]2[C@@H]1O | Toxic |  |
|  | O=C1C=C[C@@H](O)[C@@H]2C1=CCCC21Oc2cccc3cccc(c23)O1 | Toxic |  |
